In data set [1] the target is T1, Fibroblast growth factor receptor 1 (Homo sapiens, UniProt P11362). Particulars: dose 100.0 nM, time 60.0 min.
Target sequence in this assay (P11362 22-822 limits assumed): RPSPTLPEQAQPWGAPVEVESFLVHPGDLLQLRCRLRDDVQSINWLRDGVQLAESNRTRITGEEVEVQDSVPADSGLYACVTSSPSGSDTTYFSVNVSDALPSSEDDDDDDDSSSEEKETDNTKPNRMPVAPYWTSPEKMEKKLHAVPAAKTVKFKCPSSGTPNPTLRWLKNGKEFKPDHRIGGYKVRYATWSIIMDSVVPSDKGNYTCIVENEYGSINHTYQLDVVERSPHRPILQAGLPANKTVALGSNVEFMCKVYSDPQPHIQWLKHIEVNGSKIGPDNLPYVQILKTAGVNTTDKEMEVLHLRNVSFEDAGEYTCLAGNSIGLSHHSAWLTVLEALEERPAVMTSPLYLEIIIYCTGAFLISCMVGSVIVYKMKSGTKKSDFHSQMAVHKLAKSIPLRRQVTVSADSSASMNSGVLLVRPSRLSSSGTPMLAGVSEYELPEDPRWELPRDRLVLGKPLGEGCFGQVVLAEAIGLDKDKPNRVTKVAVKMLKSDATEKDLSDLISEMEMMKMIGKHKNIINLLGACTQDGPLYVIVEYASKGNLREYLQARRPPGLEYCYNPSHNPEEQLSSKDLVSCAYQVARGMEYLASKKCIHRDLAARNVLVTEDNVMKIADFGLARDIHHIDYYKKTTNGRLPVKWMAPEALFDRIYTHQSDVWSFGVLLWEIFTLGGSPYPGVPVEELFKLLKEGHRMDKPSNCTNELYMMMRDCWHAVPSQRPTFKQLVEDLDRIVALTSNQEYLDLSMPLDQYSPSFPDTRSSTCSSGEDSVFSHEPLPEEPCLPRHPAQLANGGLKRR
The target of data set [2] is T1, Fibroblast growth factor receptor 1. The settings on record: dose 1.0 nM, time 60.0 min.
Target sequence in this assay (P11362 22-822 limits assumed): as above
The target in data set [3] is Fibroblast growth factor receptor 3 (Homo sapiens, UniProt P22607). Put plainly: Inhibition of FGFR3 (unknown origin) using Poly (Glu,Tyr) 4:1 as substrate incubated for 60 mins in presence of ATP by ELISA analysis.
Chain of Fibroblast growth factor receptor 3 (P22607 whole entry): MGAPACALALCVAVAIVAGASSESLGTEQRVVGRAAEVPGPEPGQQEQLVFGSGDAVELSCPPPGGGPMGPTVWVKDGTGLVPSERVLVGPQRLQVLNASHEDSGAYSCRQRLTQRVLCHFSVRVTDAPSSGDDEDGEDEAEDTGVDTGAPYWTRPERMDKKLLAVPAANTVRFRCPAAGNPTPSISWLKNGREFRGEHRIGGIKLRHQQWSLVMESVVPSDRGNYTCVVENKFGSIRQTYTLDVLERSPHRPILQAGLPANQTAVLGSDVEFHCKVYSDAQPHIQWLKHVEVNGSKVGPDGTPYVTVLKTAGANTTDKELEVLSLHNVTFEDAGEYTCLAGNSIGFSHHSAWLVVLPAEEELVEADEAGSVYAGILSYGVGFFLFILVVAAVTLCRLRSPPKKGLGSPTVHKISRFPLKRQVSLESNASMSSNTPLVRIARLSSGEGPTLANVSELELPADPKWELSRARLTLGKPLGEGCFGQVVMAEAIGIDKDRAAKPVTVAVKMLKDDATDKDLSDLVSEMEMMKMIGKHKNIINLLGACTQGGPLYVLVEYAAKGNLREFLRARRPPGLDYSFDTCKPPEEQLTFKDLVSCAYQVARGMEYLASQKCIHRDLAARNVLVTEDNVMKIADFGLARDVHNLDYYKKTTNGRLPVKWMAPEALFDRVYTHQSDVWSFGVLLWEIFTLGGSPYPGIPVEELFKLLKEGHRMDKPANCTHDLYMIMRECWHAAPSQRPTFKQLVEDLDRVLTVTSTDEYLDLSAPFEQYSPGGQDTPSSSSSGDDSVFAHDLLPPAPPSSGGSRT
Data set [4] can be described thus: GSH reactivity in PBS buffer assessed as percentage peak area ratio incubated for 24 hrs by LC-MS/MS analysis. It is filed as physicochemical.
Data set [5] concerns the target Fibroblast growth factor receptor 2 (Homo sapiens, UniProt P21802). Put plainly: Inhibition of FGFR2 (unknown origin) using Poly (Glu,Tyr) 4:1 as substrate incubated for 60 mins in presence of ATP by ELISA analysis.
Data set [6] relates to SNU-16. Put plainly: Antiproliferative activity against human SNU-16 cells assessed as reduction in cell viability measured for 72 hrs. It is filed as functional, cell-based. The settings on record: SNU-16, 72 h.
Data set [7] concerns the target T1, Fibroblast growth factor receptor 1. Put plainly: Inhibition of FGFR1 (unknown origin) using Poly (Glu,Tyr) 4:1 as substrate incubated for 60 mins in presence of ATP by ELISA analysis.
Target sequence in this assay (P11362 whole entry): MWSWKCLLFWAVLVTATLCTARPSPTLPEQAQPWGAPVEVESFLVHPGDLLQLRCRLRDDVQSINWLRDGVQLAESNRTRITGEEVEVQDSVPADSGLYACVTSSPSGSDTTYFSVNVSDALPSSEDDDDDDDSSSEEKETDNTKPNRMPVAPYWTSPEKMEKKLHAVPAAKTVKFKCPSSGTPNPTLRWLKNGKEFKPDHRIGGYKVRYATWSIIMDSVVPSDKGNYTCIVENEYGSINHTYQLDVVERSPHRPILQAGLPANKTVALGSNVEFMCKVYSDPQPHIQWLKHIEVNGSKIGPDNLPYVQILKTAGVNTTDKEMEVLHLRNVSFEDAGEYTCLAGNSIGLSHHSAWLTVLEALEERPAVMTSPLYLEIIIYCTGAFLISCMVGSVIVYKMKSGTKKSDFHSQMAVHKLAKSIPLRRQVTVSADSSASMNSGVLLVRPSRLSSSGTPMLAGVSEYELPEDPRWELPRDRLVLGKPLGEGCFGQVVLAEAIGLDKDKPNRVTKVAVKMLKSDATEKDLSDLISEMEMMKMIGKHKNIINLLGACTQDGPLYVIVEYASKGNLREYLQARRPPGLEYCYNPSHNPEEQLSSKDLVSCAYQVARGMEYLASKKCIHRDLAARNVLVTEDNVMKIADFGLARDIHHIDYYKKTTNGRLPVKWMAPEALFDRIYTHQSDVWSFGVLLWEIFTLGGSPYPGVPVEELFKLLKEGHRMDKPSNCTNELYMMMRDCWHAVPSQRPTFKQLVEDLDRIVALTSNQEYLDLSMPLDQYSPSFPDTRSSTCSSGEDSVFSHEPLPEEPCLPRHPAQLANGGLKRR
The target of data set [8] is Voltage-gated inwardly rectifying potassium channel KCNH2 (Homo sapiens, UniProt Q12809). In words: Inhibition of hERG expressed in CHO cells at -80 mV holding potential by automated patch clamp method. It is filed as toxicity, cell-based.
Data set [9] in a line: Solubility of compound in PBS at pH 7.4 at 1 to 100 microg/ml by laser nephelometry analysis. It is filed as physicochemical. The settings on record: dose 1-100 µg/ml.
Data set [10] has as its target Fibroblast growth factor receptor (Homo sapiens) (UniProt P22607+P11362+P22455+P21802). Put plainly: Inhibition of FGFR signalling in human SNU-16 assessed as inhibition of pErk phosphorylation at 0.1 nM incubated for 2 hrs by Western blot analysis. Type of data set: cell-based. For orientation: In western blotting, separated proteins are transferred to a membrane and probed.

Data set [11] concerns the target Fibroblast growth factor receptor 4 (Homo sapiens, UniProt P22455). Put plainly: Inhibition of FGFR4 (unknown origin) using Poly (Glu,Tyr) 4:1 as substrate incubated for 60 mins in presence of ATP by ELISA analysis. Background: ELISA stands for enzyme-linked immunosorbent assay.
The target of data set [12] is T1, Fibroblast growth factor receptor 1. Particulars: dose 10.0 nM, time 60.0 min.
Target sequence in this assay (P11362 22-822 limits assumed): as the sequence (P11362 22-822 limits assumed) above
Data set [13] in a line: Stability in rat whole blood assessed as parent compound remaining measured upto 5 hrs by LC-MS/MS analysis. Type of data set: ADME, tissue-based.
Data set [14] can be described thus: Stability in rat whole blood assessed as parent compound remaining measured after 2 hrs by LC-MS/MS analysis. Particulars: read-out: Stability. Type of data set: ADME, tissue-based.
Data set [15] deals with NCI-H1581. Put plainly: Antiproliferative activity against human NCI-H1581 cells expressing FGFR1 assessed as reduction in cell viability measured after 72 hrs. Type of data set: functional, cell-based. Particulars: NCI-H1581, 72 h.
For data set [16], the system named is NCI-H716. Put plainly: Antiproliferative activity against human NCI-H716 cells expressing FGFR2 assessed as reduction in cell viability measured after 72 hrs. The settings on record: NCI-H716, 72 h. Type of data set: functional, cell-based.
The nature of data set [17]: Solubility of compound in PBS at pH 7.4. It is filed as physicochemical.

≈ marks a conversion by molar mass, not a printed value. Calls of active or inactive are those of the source. The calls are words filed in the database; no cut-off is given here.

Chain of Fibroblast growth factor receptor 2 (P21802 whole entry): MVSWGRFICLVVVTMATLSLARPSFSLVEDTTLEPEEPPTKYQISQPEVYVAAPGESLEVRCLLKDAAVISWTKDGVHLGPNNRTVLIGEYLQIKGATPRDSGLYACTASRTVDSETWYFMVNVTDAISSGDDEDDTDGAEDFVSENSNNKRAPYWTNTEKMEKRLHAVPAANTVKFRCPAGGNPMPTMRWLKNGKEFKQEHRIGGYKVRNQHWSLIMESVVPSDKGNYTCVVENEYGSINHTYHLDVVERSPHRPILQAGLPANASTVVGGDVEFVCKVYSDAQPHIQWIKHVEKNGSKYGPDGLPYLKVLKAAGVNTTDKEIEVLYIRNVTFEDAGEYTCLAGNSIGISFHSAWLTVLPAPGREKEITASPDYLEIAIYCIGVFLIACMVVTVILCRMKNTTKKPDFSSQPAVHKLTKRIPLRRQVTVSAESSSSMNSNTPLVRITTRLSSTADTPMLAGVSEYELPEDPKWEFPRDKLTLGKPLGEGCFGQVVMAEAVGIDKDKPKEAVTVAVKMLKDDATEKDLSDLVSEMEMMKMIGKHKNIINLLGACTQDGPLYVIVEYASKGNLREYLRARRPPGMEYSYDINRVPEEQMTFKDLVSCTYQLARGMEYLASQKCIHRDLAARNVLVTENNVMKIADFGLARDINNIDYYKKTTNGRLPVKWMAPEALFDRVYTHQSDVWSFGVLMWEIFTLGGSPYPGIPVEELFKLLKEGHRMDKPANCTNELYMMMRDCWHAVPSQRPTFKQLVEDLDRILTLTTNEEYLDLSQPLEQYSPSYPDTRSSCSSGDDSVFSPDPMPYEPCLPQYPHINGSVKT
Chain of Fibroblast growth factor receptor 4 (P22455 whole entry): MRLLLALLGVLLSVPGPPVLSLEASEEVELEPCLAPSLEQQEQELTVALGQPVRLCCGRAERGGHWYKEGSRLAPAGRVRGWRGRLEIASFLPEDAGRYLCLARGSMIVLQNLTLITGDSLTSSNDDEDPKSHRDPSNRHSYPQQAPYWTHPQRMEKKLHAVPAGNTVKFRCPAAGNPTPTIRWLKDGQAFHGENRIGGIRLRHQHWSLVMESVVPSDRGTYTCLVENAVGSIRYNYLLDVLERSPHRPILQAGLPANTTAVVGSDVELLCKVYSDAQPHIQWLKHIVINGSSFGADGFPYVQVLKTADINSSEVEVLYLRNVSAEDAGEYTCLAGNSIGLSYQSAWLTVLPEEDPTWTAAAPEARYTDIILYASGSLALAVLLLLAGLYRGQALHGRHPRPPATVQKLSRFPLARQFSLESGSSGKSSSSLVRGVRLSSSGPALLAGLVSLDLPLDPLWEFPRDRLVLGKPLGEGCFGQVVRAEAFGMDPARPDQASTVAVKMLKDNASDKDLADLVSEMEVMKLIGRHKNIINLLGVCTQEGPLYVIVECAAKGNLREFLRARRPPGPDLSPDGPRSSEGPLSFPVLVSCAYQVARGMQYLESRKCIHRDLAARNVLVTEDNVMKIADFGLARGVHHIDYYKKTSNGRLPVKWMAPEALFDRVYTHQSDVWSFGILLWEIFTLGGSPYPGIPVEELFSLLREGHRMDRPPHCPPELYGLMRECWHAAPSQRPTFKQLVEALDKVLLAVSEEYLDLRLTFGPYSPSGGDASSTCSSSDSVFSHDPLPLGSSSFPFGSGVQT
Chain of Fibroblast growth factor receptor (Homo sapiens) (P11362 whole entry, looked up): as the sequence (P11362 whole entry) above
Chain of Fibroblast growth factor receptor (Homo sapiens) (P21802 whole entry, looked up): as the sequence (P21802 whole entry) above
Chain of Fibroblast growth factor receptor (Homo sapiens) (P22455 whole entry, looked up): as the sequence (P22455 whole entry) above
Chain of Fibroblast growth factor receptor (Homo sapiens) (P22607 whole entry, looked up): as the sequence (P22607 whole entry) above

`C=CC(=O)N1CCCC(n2nc3c(=O)[nH]nc(N)c3c2-c2oc3cccc(OC)c3c2C)C1` (racemic) returned an inhibition in data set [1] of 32%.
Compound `C/C=C(\C)C(=O)N1CCCC(n2nc3c(=O)[nH]nc(N)c3c2-c2oc3ccc(C)cc3c2C)C1` (racemic) showed an inhibition in data set [1] of 37%.
The same measure, in the same setting: the value for `C=CC(=O)N1CCC(n2nc3c(=O)[nH]nc(N)c3c2-c2oc3ccc(C(F)(F)F)cc3c2C)CC1` was 27%.
Take `C=CC(=O)N1CCC(n2nc3c(=O)[nH]nc(N)c3c2-c2oc3ccc(C)cc3c2C)CC1`: the inhibition worked out at 14.2% in data set [2], 78.2% in data set [12] and 91.2% in data set [1]. Further, the IC50 is 18.7 nM in [3]; 4.4 nM in [5]; below 0.05 nM in [6]; 8 nM in data set [7]; 1130 nM in [8]; 45.5 nM in [11]. The Activity in data set [4] is given as 84%. Further, the solubility (kinetic) in data set [9] was found to be 10 µg/mL (≈ 23.1 µM). Moreover, in [10], the inhibition result is “Active”. The Stability entry in data set [13] was “Stable”. Also, in [14], the remaining at 2 h is above 40%.
Take `Cc1ccc2oc(-c3c4c(N)n[nH]c(=O)c4nn3C3CCN(C(=O)C#CCO)CC3)c(C)c2c1`: the values for the IC50 in data set [6] and in data set [7] were 16.6 nM and 2.2 nM, respectively.
`C=CC(=O)N1CCC[C@@H](n2nc(-c3ccc(Oc4ccccc4)cc3)c3c(N)ncnc32)C1` [IBRUTINIB] gave a kinetic solubility in data set [9] of 10 µg/mL (≈ 22.7 µM).
Take `C=CC(=O)N1CCCC(n2nc3c(=O)[nH]nc(N)c3c2-c2oc3ccc(Cl)cc3c2C)C1` (racemic): the IC50 in data set [6] is below 0.3 nM; in data set [7], 6.4 nM.
In turn, `Cc1ccc2oc(-c3c4c(N)n[nH]c(=O)c4nn3C3CCCN(C(=O)CC#N)C3)c(C)c2c1` (racemic) gave an inhibition in data set [1] of 31%.
For the compound `C=CC(=O)N1CCC(n2nc3c(=O)[nH]nc(N)c3c2-c2oc3cc(OC)cc(OC)c3c2C)CC1`, the IC50 in data set [7] amounted to 84.4 nM. In [1], this compound displayed an inhibition of 44%.
As for `C=CC(=O)N1CCC(n2nc3c(=O)[nH]nc(N)c3c2-c2oc3cc(C)ccc3c2C)CC1`, the IC50 is below 0.3 nM in data set [6] and 2.3 nM in data set [7]. Further, in data set [9], the solubility (kinetic) was found to be 10 µg/mL (≈ 23.1 µM).
In data set [1], `C=C(C)C(=O)N1CCCC(n2nc3c(=O)[nH]nc(N)c3c2-c2oc3ccc(C)cc3c2C)C1` (racemic) returned an inhibition of 36%.
Consider `Cc1ccc2oc(-c3c4c(N)n[nH]c(=O)c4nn3C3CCCN(C(=O)/C=C/CN(C)C)C3)c(C)c2c1` (racemic), for which the IC50 in [7] turned out to be 117 nM. Also, the kinetic solubility in data set [9] stood at 10 µg/mL (≈ 20.4 µM).
For `CCC#CC(=O)N1CCCC(n2nc3c(=O)[nH]nc(N)c3c2-c2oc3ccc(C)cc3c2C)C1` (racemic), the IC50 in data set [6] worked out at 36.4 nM; in [7], 25.4 nM.
`C=CC(=O)N1CCCC(n2nc3c(=O)[nH]nc(N)c3c2-c2oc3cc(OC)ccc3c2C)C1` (racemic) came in with an inhibition in data set [1] of 11%.
On to `CC#CC(=O)N1CCCC(n2nc3c(=O)[nH]nc(N)c3c2-c2oc3ccc(C)cc3c2C)C1` (racemic), for which the IC50 in data set [6] turned out to be 35.2 nM; in data set [7] it was 27.3 nM.
For `C=CC(=O)N1CCC(Cn2nc3c(=O)[nH]nc(N)c3c2-c2oc3ccc(C)cc3c2C)CC1`, the inhibition in [2] was determined as 29.5%; in [12], 48.3%; in data set [1], 61.6%. In data set [6], the IC50 amounted to 2 nM. This compound came in with a kinetic solubility in data set [9] of 10 µg/mL (≈ 22.4 µM).
Consider `C=CC(=O)N1CCC(n2nc3c(=O)[nH]nc(N)c3c2-c2oc3cc(OC)ccc3c2C)CC1`, for which the IC50 in data set [6] worked out at 8.9 nM; in data set [7] it was 101 nM.
Take `CN(C)C/C=C/C(=O)Nc1cc2c(Nc3ccc(F)c(Cl)c3)ncnc2cc1O[C@H]1CCOC1` [AFATINIB]: the kinetic solubility in [9] is 50 µg/mL (≈ 103 µM).
As for `C=CC(=O)N1CCC(n2nc3c(=O)[nH]nc(N)c3c2-c2oc3ccc(OC)cc3c2C)CC1`, the inhibition in data set [1] stood at 44%.
On to `COc1cc(CCc2cc(NC(=O)c3ccc(N4C[C@@H](C)N[C@@H](C)C4)cc3)n[nH]2)cc(OC)c1` [FEXAGRATINIB], for which the IC50 is 15.8 nM in data set [15], 3.7 nM in data set [6] and 0.6 nM in [16].
In the case of `C=CC(=O)N1CCC(n2nc3c(=O)[nH]nc(N)c3c2-c2oc3cccc(OC)c3c2C)CC1`, the IC50 in [6] was below 0.3 nM; in data set [7], 111 nM.
On to `CC#CC(=O)N1CCC(n2nc3c(=O)[nH]nc(N)c3c2-c2oc3ccc(C)cc3c2C)CC1`, for which, in data set [4], the Activity is 87%. The IC50 was below 0.3 nM in [6] and 6.7 nM in [7]. Moreover, in data set [9], the solubility (kinetic) is 1 µg/mL (≈ 2.25 µM). The Stability entry in data set [13] is recorded as “Stable”.
As to `C=CC(=O)N[C@H]1CC[C@H](n2nc3c(=O)[nH]nc(N)c3c2-c2oc3ccc(C)cc3c2C)CC1`, the inhibition in data set [2] was 32.4%; in data set [12], 47.4%; in data set [1], 85.7%. Besides, the IC50 in data set [6] stood at 3.1 nM.
`C=C(F)C(=O)N1CCC(n2nc3c(=O)[nH]nc(N)c3c2-c2oc3ccc(C)cc3c2C)CC1` yielded a solubility (kinetic) in data set [9] of 10 µg/mL (≈ 22.2 µM).
As for `C=CC(=O)N1CCCC(n2nc3c(=O)[nH]nc(N)c3c2-c2oc3cc(OC)cc(OC)c3c2C)C1` (racemic), the inhibition in data set [1] amounted to 40%.
As for `C#CC(=O)N1CCCC(n2nc3c(=O)[nH]nc(N)c3c2-c2oc3ccc(C)cc3c2C)C1` (racemic), the values for the IC50 in [6] and in data set [7] were 15.8 nM and 3.9 nM, respectively.
As for `C/C=C/C(=O)N1CCCC(n2nc3c(=O)[nH]nc(N)c3c2-c2oc3ccc(C)cc3c2C)C1` (racemic), in [7], the IC50 was determined as 67.7 nM.
In data set [1], `C=CC(=O)N1CCC(n2nc3c(=O)[nH]nc(N)c3c2-c2oc3ccc(F)cc3c2C)CC1` had an inhibition of 20%.
As to `Cc1ccc2oc(-c3c4c(N)n[nH]c(=O)c4nn3C3CCCN(C(=O)C#CCO)C3)c(C)c2c1` (racemic), the IC50 worked out at 82.9 nM in [6] and 21.9 nM in [7].
For `CC/C=C/C(=O)N1CCCC(n2nc3c(=O)[nH]nc(N)c3c2-c2oc3ccc(C)cc3c2C)C1` (racemic), in [7], the IC50 stood at 122 nM.
On to `C=CC(=O)N1CCC(n2nc3c(=O)[nH]nc(N)c3c2-c2oc3ccc(Cl)cc3c2C)CC1`, for which the IC50 was determined as 9 nM in [6] and 2 nM in data set [7].
For the compound `C=CC(=O)N1CCC(n2nc3c(=O)[nH]nc(N)c3c2-c2oc3cc(F)ccc3c2C)CC1`, the IC50 turned out to be 1.5 nM in [6] and 6.5 nM in data set [7]. The solubility (kinetic) in data set [9] worked out at 10 µg/mL (≈ 22.9 µM).
`C=CC(=O)Nc1ccc(-n2nc3c(=O)[nH]nc(N)c3c2-c2oc3ccc(C)cc3c2C)cc1` came in with a solubility in data set [17] of 1 µg/mL (≈ 2.27 µM). The kinetic solubility in data set [9] turned out to be 1 µg/mL (≈ 2.27 µM).
For the compound `C#CC(=O)N1CCC(n2nc3c(=O)[nH]nc(N)c3c2-c2oc3ccc(C)cc3c2C)CC1`, in [4], the Activity stood at 0%. The results for the IC50 in data set [6] and in [7] were below 0.3 nM and 0.9 nM, respectively. In data set [9], this compound returned a kinetic solubility of 10 µg/mL (≈ 23.2 µM). Further, in data set [13], the Stability entry is given as “Unstable”.
On to `CCC#CC(=O)N1CCC(n2nc3c(=O)[nH]nc(N)c3c2-c2oc3ccc(C)cc3c2C)CC1`, for which the IC50 in [6] was below 0.3 nM; in data set [7] it was 7.71 nM. In data set [9], the solubility (kinetic) worked out at 1 µg/mL (≈ 2.18 µM).

In general, inhibition refers to the relative decrease from the control value, in per cent. One may read the IC50 as the concentration at which inhibition is half-maximal. Usually solubility (kinetic) stands for the concentration staying in solution when a stock, usually in DMSO, is diluted into the medium. The term solubility denotes how much of the substance goes into solution per volume. A lower solubility goes with a poorly soluble substance.

Source of the values: ChEMBL document CHEMBL5247642, “Structural Optimization of Fibroblast Growth Factor Receptor Inhibitors for Treating Solid Tumors” (J Med Chem, 2023).
